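96-well plates; 48 h exposure; 5 concentrations. Endpoints by linear interpolation between flanking doses. Not reached: highest tested concentration assigned. GI50: concentration for 50% inhibition of growth. Definition used: TGI = concentration required for complete inhibition of growth.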
Key:
Test in all cases: inhibition of tumour cell growth, NCI panel, 48 h
786-0 renal = system: 786-0 renal
A498 renal = system: A498 renal
A549 NSCLC = system: A549 NSCLC
ACHN renal = system: ACHN renal
BT-549 breast = system: BT-549 breast
CAKI-1 renal = system: CAKI-1 renal
CCRF-CEM leukemia = system: CCRF-CEM leukemia
COLO 205 colon = system: COLO 205 colon
DU-145 prostate = system: DU-145 prostate
EKVX NSCLC = system: EKVX NSCLC
HCC-2998 colon = system: HCC-2998 colon
HCT-116 colon = system: HCT-116 colon
HCT-15 colon = system: HCT-15 colon
HL-60(TB) leukemia = system: HL-60(TB) leukemia
HOP-62 NSCLC = system: HOP-62 NSCLC
HOP-92 NSCLC = system: HOP-92 NSCLC
HS 578T breast = system: HS 578T breast
HT29 colon = system: HT29 colon
IGROV1 ovarian = system: IGROV1 ovarian
K-562 leukemia = system: K-562 leukemia
KM12 colon = system: KM12 colon
LOX IMVI melanoma = system: LOX IMVI melanoma
M14 melanoma = system: M14 melanoma
MALME-3M melanoma = system: MALME-3M melanoma
MCF7 breast = system: MCF7 breast
MDA-MB-231 breast = system: MDA-MB-231 breast
MDA-MB-435 = system: MDA-MB-435
MOLT-4 leukemia = system: MOLT-4 leukemia
NCI-H226 lung = system: NCI-H226 lung
NCI-H23 lung = system: NCI-H23 lung
NCI-H460 lung = system: NCI-H460 lung
NCI-H522 lung = system: NCI-H522 lung
NCI/ADR-RES ovarian = system: NCI/ADR-RES ovarian
OVCAR-3 ovarian = system: OVCAR-3 ovarian
OVCAR-4 ovarian = system: OVCAR-4 ovarian
OVCAR-5 ovarian = system: OVCAR-5 ovarian
OVCAR-8 ovarian = system: OVCAR-8 ovarian
PC-3 prostate = system: PC-3 prostate
RPMI-8226 leukemia = system: RPMI-8226 leukemia
RXF 393 renal = system: RXF 393 renal
SF-268 CNS = system: SF-268 CNS
SF-295 CNS = system: SF-295 CNS
SF-539 CNS = system: SF-539 CNS
SK-MEL-2 melanoma = system: SK-MEL-2 melanoma
SK-MEL-28 melanoma = system: SK-MEL-28 melanoma
SK-MEL-5 melanoma = system: SK-MEL-5 melanoma
SK-OV-3 ovarian = system: SK-OV-3 ovarian
SN12C renal = system: SN12C renal
SNB-19 CNS = system: SNB-19 CNS
SNB-75 CNS = system: SNB-75 CNS
SR leukemia = system: SR leukemia
SW-620 colon = system: SW-620 colon
T-47D breast = system: T-47D breast
TK-10 renal = system: TK-10 renal
U251 CNS = system: U251 CNS
UACC-257 melanoma = system: UACC-257 melanoma
UACC-62 melanoma = system: UACC-62 melanoma
UO-31 renal = system: UO-31 renal

COc1ccc(C(=O)Nc2ncc(Cc3ccccc3Cl)s2)cc1
GI50 (786-0 renal): 400 nM
TGI (786-0 renal): 22600 nM
GI50 (A498 renal): 6540 nM
TGI (A498 renal): 33700 nM
GI50 (A549 NSCLC): 435 nM
TGI (A549 NSCLC): > 47400 nM
GI50 (ACHN renal): 502 nM
TGI (ACHN renal): 18300 nM
GI50 (BT-549 breast): 427 nM
TGI (BT-549 breast): 11000 nM
GI50 (CAKI-1 renal): 138 nM
TGI (CAKI-1 renal): 16600 nM
GI50 (CCRF-CEM leukemia): 148 nM
TGI (CCRF-CEM leukemia): > 100000 nM
GI50 (COLO 205 colon): 264 nM
TGI (COLO 205 colon): 1030 nM
GI50 (DU-145 prostate): 415 nM
TGI (DU-145 prostate): 14200 nM
GI50 (EKVX NSCLC): 1790 nM
TGI (EKVX NSCLC): 38600 nM
GI50 (HCC-2998 colon): 240 nM
TGI (HCC-2998 colon): 3660 nM
GI50 (HCT-116 colon): 114 nM
TGI (HCT-116 colon): 15700 nM
GI50 (HCT-15 colon): 59.3 nM
TGI (HCT-15 colon): 13200 nM
GI50 (HL-60(TB) leukemia): 87.3 nM
TGI (HL-60(TB) leukemia): 1950 nM
GI50 (HOP-62 NSCLC): 667 nM
TGI (HOP-62 NSCLC): 18700 nM
GI50 (HOP-92 NSCLC): 11800 nM
TGI (HOP-92 NSCLC): > 80200 nM
GI50 (HS 578T breast): 309 nM
TGI (HS 578T breast): 23600 nM
GI50 (HT29 colon): 128 nM
TGI (HT29 colon): 2230 nM
GI50 (IGROV1 ovarian): 486 nM
TGI (IGROV1 ovarian): 26800 nM
GI50 (K-562 leukemia): 60 nM
TGI (K-562 leukemia): > 100000 nM
GI50 (KM12 colon): 140 nM
TGI (KM12 colon): 23000 nM
GI50 (LOX IMVI melanoma): 259 nM
TGI (LOX IMVI melanoma): > 35000 nM
GI50 (M14 melanoma): 162 nM
TGI (M14 melanoma): > 36600 nM
GI50 (MALME-3M melanoma): 1120 nM
TGI (MALME-3M melanoma): 23100 nM
GI50 (MCF7 breast): 137 nM
TGI (MCF7 breast): > 34500 nM
GI50 (MDA-MB-231 breast): 437 nM
TGI (MDA-MB-231 breast): 20000 nM
GI50 (MDA-MB-435): 31.6 nM
TGI (MDA-MB-435): 122 nM
GI50 (MOLT-4 leukemia): 266 nM
TGI (MOLT-4 leukemia): > 100000 nM
GI50 (NCI-H226 lung): 283 nM
TGI (NCI-H226 lung): 2530 nM
GI50 (NCI-H23 lung): 625 nM
TGI (NCI-H23 lung): 30500 nM
GI50 (NCI-H460 lung): 147 nM
TGI (NCI-H460 lung): 5200 nM
GI50 (NCI-H522 lung): 118 nM
TGI (NCI-H522 lung): 387 nM
GI50 (NCI/ADR-RES ovarian): 145 nM
TGI (NCI/ADR-RES ovarian): 3790 nM
GI50 (OVCAR-3 ovarian): 191 nM
TGI (OVCAR-3 ovarian): 5220 nM
GI50 (OVCAR-4 ovarian): 2070 nM
TGI (OVCAR-4 ovarian): 30000 nM
GI50 (OVCAR-5 ovarian): 406 nM
TGI (OVCAR-5 ovarian): 22600 nM
GI50 (OVCAR-8 ovarian): 462 nM
GI50 (PC-3 prostate): 274 nM
TGI (PC-3 prostate): > 68400 nM
GI50 (RPMI-8226 leukemia): 270 nM
TGI (RPMI-8226 leukemia): > 100000 nM
GI50 (RXF 393 renal): 126 nM
TGI (RXF 393 renal): 1410 nM
GI50 (SF-268 CNS): 1580 nM
TGI (SF-268 CNS): 58300 nM
GI50 (SF-295 CNS): 214 nM
TGI (SF-295 CNS): 6430 nM
GI50 (SF-539 CNS): 179 nM
TGI (SF-539 CNS): 842 nM
GI50 (SK-MEL-2 melanoma): 176 nM
TGI (SK-MEL-2 melanoma): 3830 nM
GI50 (SK-MEL-28 melanoma): 1550 nM
TGI (SK-MEL-28 melanoma): > 66400 nM
GI50 (SK-MEL-5 melanoma): 307 nM
TGI (SK-MEL-5 melanoma): 6440 nM
GI50 (SK-OV-3 ovarian): 372 nM
TGI (SK-OV-3 ovarian): 16600 nM
GI50 (SN12C renal): 309 nM
TGI (SN12C renal): 20400 nM
GI50 (SNB-19 CNS): 404 nM
TGI (SNB-19 CNS): 19200 nM
GI50 (SNB-75 CNS): 201 nM
TGI (SNB-75 CNS): 6020 nM
GI50 (SR leukemia): 39.8 nM
TGI (SR leukemia): > 100000 nM
GI50 (SW-620 colon): 106 nM
TGI (SW-620 colon): > 100000 nM
GI50 (T-47D breast): 2090 nM
TGI (T-47D breast): > 56700 nM
GI50 (TK-10 renal): 11900 nM
TGI (TK-10 renal): 41100 nM
GI50 (U251 CNS): 288 nM
TGI (U251 CNS): 23100 nM
GI50 (UACC-257 melanoma): 5870 nM
TGI (UACC-257 melanoma): > 65500 nM
GI50 (UACC-62 melanoma): 127 nM
TGI (UACC-62 melanoma): 16300 nM
GI50 (UO-31 renal): 696 nM
TGI (UO-31 renal): 38100 nM

— PubChem BioAssay (NCI)
